Key:
[1] = biological target: brain-resident NR2B-subtype receptors (Mus musculus (Mouse), UniProt P35438+Q01097); test: Ex vivo occupancy assay; type: in vivo; settings: animals after dosing
Protocol: Ex Vivo Occupancy Assay. […] 7-9 weeks old male CD-1 mice were dosed intravenously in a vehicle consisting of 10% dimethylacetamide, 40% PEG-400, 30% hydroxypropyl betacyclodextrin, and 30% water with experimental compounds and the forebrains were harvested 15 minutes post-dosing by decapitation. The brain samples were immediately snap-frozen and stored at −80° C. On the following day, the dosed brain samples were thawed on ice for 15-20 minutes followed by homogenization using Polytron for 10 seconds in cold homogenization buffer composed of 50 mM KH2PO4 (pH adjusted to 7.4 with KOH), 1 mM EDTA, 0.005% Triton X 100 and protease inhibitor cocktail (Sigma Aldrich). The crude homogenates were further homogenized using a Dounce homogenizer and the homogenized membrane aliquots from all animals were flash-frozen and stored at −80° C. until further use. The whole homogenization process was performed on ice. For determining occupancy, the membrane homogenates were first thawed on ice and then needle-homogenized using a 25 gauge needle. The homogenized membrane (6.4 mg/ml) was added to a 96-well plate followed by addition of ^3H Ro 25-6981 (6 nM). The reaction mixture was incubated for 5 minutes on a shaker at 4° C. and then harvested onto GF/B filter plates (treated with 0.5% PEI for 1 hr at room temperature). The filter plates were dried at 50° C. for 20 mins, incubated with microscint 20 for 10 minutes and read on TopCount (Perkin Elmer). Each dose or compound group consisted of 4-5 animals. The control group of animals was dosed with vehicle alone. Membrane from each animal was added in triplicates to the assay plate. Non-specific binding was determined using 10 μM Ro 25-6981 added to the wells containing membrane homogenates from vehicle-dosed animals. Specific counts/minute was converted to % occupancy at each dose of a compound for each animal using the following equation: […]
Drug levels were determined by mass spectroscopy in the usual manner. Drug levels in the blood plasma were 572 nM in at this dose, and drug levels in the homogenized brain tissue were 863 nM.

[2] = biological target: NR2B-subtype NMDA receptors (Rattus norvegicus (Rat), UniProt P35439+Q00960); test: Radioligand binding assay (3H Ro 25-6981 competition, rat forebrain membranes); settings: 3H Ro 25-6981 (4 nM), P-2, read-out: NR2B Binding Ki
Sequence of NR2B-subtype NMDA receptors (Q00960 27-1482, other chains not shown): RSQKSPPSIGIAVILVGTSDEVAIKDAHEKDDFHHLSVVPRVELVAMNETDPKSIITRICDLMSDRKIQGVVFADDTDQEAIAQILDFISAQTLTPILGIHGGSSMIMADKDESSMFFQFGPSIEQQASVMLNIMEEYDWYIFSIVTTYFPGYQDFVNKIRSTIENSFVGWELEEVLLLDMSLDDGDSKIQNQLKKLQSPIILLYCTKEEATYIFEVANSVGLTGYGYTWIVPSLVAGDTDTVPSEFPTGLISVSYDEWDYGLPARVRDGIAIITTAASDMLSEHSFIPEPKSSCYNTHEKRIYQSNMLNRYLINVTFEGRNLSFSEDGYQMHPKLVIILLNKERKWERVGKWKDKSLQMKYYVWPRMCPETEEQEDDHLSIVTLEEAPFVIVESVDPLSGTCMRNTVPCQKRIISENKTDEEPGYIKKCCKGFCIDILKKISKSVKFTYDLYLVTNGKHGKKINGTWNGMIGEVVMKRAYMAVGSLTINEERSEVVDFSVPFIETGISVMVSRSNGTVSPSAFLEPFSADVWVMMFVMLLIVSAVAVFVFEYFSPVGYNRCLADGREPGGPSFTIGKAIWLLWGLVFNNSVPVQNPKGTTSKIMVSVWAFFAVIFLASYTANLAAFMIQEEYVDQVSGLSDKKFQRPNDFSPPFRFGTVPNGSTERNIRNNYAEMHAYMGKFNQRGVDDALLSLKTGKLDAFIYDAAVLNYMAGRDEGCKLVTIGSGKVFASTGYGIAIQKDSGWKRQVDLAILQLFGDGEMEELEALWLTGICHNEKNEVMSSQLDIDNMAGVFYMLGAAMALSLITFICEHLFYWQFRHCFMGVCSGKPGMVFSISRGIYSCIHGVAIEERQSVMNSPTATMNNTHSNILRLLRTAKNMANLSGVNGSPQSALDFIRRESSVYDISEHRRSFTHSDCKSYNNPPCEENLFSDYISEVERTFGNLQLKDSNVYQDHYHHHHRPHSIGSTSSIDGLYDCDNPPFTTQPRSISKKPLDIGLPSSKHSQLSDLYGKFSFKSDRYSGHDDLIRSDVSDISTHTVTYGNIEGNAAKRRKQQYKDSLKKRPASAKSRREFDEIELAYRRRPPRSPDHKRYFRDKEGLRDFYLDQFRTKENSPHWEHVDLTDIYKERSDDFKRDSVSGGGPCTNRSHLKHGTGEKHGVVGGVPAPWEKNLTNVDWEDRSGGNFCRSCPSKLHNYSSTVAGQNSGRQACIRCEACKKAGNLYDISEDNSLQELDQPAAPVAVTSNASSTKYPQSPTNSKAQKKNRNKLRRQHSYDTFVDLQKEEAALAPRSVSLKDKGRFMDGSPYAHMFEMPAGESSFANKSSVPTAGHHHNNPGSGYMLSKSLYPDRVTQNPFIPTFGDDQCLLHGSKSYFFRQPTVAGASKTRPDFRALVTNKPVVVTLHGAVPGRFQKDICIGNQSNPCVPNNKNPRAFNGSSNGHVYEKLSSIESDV
Protocol: Radioligand Binding Assay. Binding experiments to determine binding to NR2B-subtype NMDA receptors were performed on forebrains of 8-10 weeks old male Sprague Dawley rats (Harlan, Netherlands) using ^3H Ro 25-6981 (Mutel V; Buchy D; Klingelschmidt A; Messer J; Bleuel Z; Kemp J A; Richards J G. Journal of Neurochemistry, 1998, 70(5):2147-2155. Rats were decapitated without anesthesia using a Guillotine (approved by animal ethics committee) and the harvested brains were snap-frozen and stored at −80° C. for 3-6 months for membrane preparation.
For membrane preparation, rat forebrains were thawed on ice for 20 minutes in homogenization buffer composed of 50 mM KH2PO4 (pH adjusted to 7.4 with KOH), 1 mM EDTA, 0.005% Triton X 100 and protease inhibitor cocktail (Sigma Aldrich). Thawed brains were homogenized using a Dounce homogenizer and centrifuged at 48000×g for 20 min. The pellet was resuspended in cold buffer and homogenized again using a Dounce homogenizer. Subsequently, the homogenate was aliquoted, snap-frozen and stored at −80° C. for not more than 3-4 months.
To perform the competition binding assay, thawed membrane homogenate was added to each well of a 96-well plate (20 μg/well). The experimental compounds were serially diluted in 100% DMSO and added to each row of the assay plate to achieve desired compound concentrations, keeping the DMSO concentration in the assay plate at 1.33% of the final reaction volume. Next, ^3H Ro 25-6981 (4 nM) was added to the assay plate. After incubation for 1 hr at room temperature, the membrane bound radioligand was harvested on to GF/B filter plates (treated with 0.5% PEI for 1 hr at room temperature). The filter plates were dried at 50° C. for 20 mins, incubated with microscint 20 for 10 minutes and finally, the counts were read on TopCount (Perkin Elmer).

Sequence of brain-resident NR2B-subtype receptors (Q01097 27-1482, other chains not shown): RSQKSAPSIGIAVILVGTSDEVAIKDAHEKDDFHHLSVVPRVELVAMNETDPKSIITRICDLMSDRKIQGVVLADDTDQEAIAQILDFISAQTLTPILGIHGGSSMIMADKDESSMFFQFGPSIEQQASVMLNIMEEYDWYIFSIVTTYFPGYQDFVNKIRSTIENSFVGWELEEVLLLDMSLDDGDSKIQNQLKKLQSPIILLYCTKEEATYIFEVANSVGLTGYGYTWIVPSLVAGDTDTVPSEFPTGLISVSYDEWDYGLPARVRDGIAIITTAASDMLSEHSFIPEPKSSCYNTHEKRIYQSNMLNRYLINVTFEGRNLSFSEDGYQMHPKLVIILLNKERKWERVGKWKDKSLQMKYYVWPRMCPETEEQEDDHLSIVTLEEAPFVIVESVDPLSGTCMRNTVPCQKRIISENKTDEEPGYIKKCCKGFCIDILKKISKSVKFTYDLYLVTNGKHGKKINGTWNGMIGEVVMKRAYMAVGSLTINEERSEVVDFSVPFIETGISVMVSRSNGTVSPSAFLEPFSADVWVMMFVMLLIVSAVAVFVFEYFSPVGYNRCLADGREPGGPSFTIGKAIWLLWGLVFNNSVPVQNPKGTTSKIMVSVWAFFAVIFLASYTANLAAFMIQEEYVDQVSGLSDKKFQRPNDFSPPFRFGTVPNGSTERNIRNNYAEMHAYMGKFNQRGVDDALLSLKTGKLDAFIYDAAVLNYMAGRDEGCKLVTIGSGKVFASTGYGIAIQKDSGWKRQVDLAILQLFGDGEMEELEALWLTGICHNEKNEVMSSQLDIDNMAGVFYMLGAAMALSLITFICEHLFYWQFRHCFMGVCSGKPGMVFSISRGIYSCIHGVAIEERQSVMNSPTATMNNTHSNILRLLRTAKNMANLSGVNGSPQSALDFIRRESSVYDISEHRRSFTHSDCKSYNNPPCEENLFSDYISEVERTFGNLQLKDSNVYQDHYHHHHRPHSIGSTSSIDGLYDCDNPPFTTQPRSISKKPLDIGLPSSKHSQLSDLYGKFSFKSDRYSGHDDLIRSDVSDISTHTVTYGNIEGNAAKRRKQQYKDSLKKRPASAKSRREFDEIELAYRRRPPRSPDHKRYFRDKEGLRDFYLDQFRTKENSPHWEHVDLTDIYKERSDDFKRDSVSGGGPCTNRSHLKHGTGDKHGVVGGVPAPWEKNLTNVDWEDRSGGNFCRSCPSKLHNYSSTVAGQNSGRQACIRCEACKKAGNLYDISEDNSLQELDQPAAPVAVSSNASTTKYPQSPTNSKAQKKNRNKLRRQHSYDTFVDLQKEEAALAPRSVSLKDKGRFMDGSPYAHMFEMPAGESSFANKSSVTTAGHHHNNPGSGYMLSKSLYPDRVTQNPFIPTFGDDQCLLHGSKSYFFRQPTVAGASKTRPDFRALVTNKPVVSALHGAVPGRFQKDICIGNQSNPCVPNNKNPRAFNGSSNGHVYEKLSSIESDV

Ki [2]: 2.79 nM
Compound: Cc1ccc(CN2OCC(N3CCC(c4ccc(O)cc4)CC3)C2=O)cc1 (single isomer, unassigned) [Example 2, P-2, 4-(4-(4-hydroxyphenyl)piperidin-1-yl)-2-(4-methylbenzyl)isoxazolidin-3-one]
occupancy of brain-resident NR2B-subtype receptors after dosing (in words) [1]: occupies brain-resident NR2B-subtype receptors

— patent US10501451B2, “Selective NR2B antagonists” (BRISTOL-MYERS SQUIBB COMPANY, priority 2015, dated 2019)
